Assay results from US12329850B2, “Microalgae having high loliolide productivity” (KOREA RESEARCH INSTITUTE OF BIOSCIENCE AND BIOTECHNOLOGY, priority 2019, dated 2025).

Tests used:
Type in all cases: cell-based
[1] = system: human dermal fibroblasts (HDFs); test: WST-1 assay, cytotoxicity of loliolide on human dermal fibroblasts; conditions: loliolide up to 20 μg/mL, 24 hours
Experimental: The purification of loliolide was performed in the same manner as in Example 3, and an extract was obtained using ethyl acetate from a lyophilized culture of the Scenedesmus sp. HS4 microalgae of the present invention, and loliolide was purified through fractionation/concentration. In the case of culturing human dermal cells, human dermal fibroblasts purchased from Lonza (Basel, Switzerland) were cultured in a 5% CO2 cell incubator at 37° C. using a medium in which 10% fetal bovine serum (FBS, 51480, Biowest, France) was further added to Dulbecco's modified Eagle's medium (DMEM medium, L0103-500, Biowest, France).
First, whether loliolide has cytotoxicity against human dermal fibroblasts was confirmed through WST-1 assay. After dispensing the cultured human dermal fibroblasts into a 96-well plate at 4×10^3 cells/well and culturing for 24 hours, the loliolide purified from Scenedesmus sp. HS4 microalgae was treated at concentrations of 0 μg/mL, 2 μg/mL, 5 μg/mL, 10 μg/mL, and 20 μg/mL, respectively. After 24 hours have elapsed after the loliolide treatment, the solution was treated in the medium using a WST-1 assay kit (EZ-cytox cell viability kit, Itshio, Korea), the absorbance was measured at a wavelength of 450 nm with a microplate reader (iMark microplate reader, Bio-Rad, USA).

[2] = system: human dermal fibroblasts irradiated with UVB; test: WST-1 assay, cell viability recovery in UVB-irradiated human dermal fibroblasts; conditions: loliolide 2 μg/mL for 6 hours, then UVB 10 mJ/cm^2, 24 hours
Experimental: Human dermal fibroblasts cultured in the same manner as in Example 6 were dispensed in a 96-well plate by 4×10^3 cells/well, and loliolide was treated at concentrations of 2 μg/mL, 5 μg/mL, 10 μg/mL, and 20 μg/mL for 6 hours. Then, the medium was irradiated with UVB at 10 mJ/cm^2 and cultured further for 24 hours, and cell viability was measured by performing a WST-1 assay in the same manner as in Example 6.

ColA1 gene = test: qRT-PCR, expression of collagen gene in UVB-irradiated human dermal fibroblasts; conditions: 24 hours, UVB-only control 30%
Experimental: (§1) First, human dermal fibroblasts cultured in the same manner as in Example 6 were dispensed in a 96-well plate in an amount of 4×10^3 cells/well, and UVB was irradiated to the medium at 10 mJ/cm^2. […] Thereafter, the changes in expression levels of the ColA1 gene and the MMP1 gene were measured through quantitative real time-PCR (qRT-PCR). During this process, SYBR green I (Invitrogen), which is a fluorescent material, was used to examine the amount of the DNA product amplified by PCR in real time. Specifically, 0.2 μM of the primers prepared with the sequences shown in Table 3 below were added to a PCR tube, and mixed with 50 mM KCl, 20 mM Tris/HCl (pH 8.4), 0.8 mM dNTP, 0.5 U DNA polymerase (Extaq DNA polymerase), 3 mM MgCl2 and 1×SYBR Green I so as to prepare a reaction solution. Then, PCR was performed using a PCR device (Linegene K, BioER, China)(PCR conditions: primary denaturation for 3 minutes, denaturation at 94° C. for 30 seconds, annealing at 58° C. for 30 seconds, and polymerization at 72° C. for 30 seconds, a total of 40 cycles), and the fluorescence intensity was measured for each cycle.

MMP1 gene = test: qRT-PCR, expression of collagenase gene in UVB-irradiated human dermal fibroblasts; conditions: 24 hours, UVB-only control 2.4-fold increase
Experimental: as §1

[3] = UVB 10 mJ/cm^2, then loliolide 5 μg/mL
[4] = UVB 10 mJ/cm^2, then loliolide 10 μg/mL

## CC1(C)C[C@H](O)C[C@@]2(C)OC(=O)C=C12 [loliolide]
[1]
  toxicity to human dermal fibroblasts (relative viability vs untreated control): not toxic
[2]
  cell viability compared to the UVB control group: significantly increased
ColA1 gene; [3]
  expression level of ColA1 gene, based on cells without any treatment: 55%
ColA1 gene; [4]
  expression level of ColA1 gene, based on cells without any treatment: 65%
MMP1 gene; [3]
  expression level of MMP1 gene: 25%
MMP1 gene; [4]
  expression level of MMP1 gene: 46%
